Measured values reported in US9738634B2, “Heterocyclic amide compound and herbicide” (SYNGENTA PARTICIPATIONS AG, priority 2013, dated 2017).

Columns and labels:
Format in all cases: in vivo
[1] = system: transplanted rice; assay: Test Example 1: preemergent weed treatment in the submerged state, effect on crop; a: transplanted rice
Procedure, shortened: (§1)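 Pots of alluvial soil flooded 4 cm deep, sown with barnyard grass, bulrush and oval-leafed pondweed and transplanted with 2.5-leaf rice. Emulsified compound applied to the water surface on sowing day at stated g/ha; greenhouse 25–30 °C, effects assessed 3 weeks after treatment.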

[2] = system: bulrush; assay: Test Example 2: weedkilling efficacy, growth period weed treatment in the submerged state; B: bulrush
Procedure, shortened: (§2)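 Barnyard grass, bulrush and oval-leafed pondweed sown in alluvial soil under 4 cm flooding, greenhouse 25 to 30° C. At 1-2 leaf stage, water-diluted emulsion applied to the water surface at stated g/ha dosages; effects scored 3 weeks later.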

[3] = system: bulrush; assay: Test Example 1: weedkilling efficacy, preemergent weed treatment in the submerged state; B: bulrush
Procedure, shortened: as §1

[4] = system: oval-leafed pondweed; assay: Test Example 2: weedkilling efficacy, growth period weed treatment in the submerged state; C: oval-leafed pondweed
Procedure, shortened: as §2

[5] = system: barnyard grass; assay: Test Example 1: weedkilling efficacy, preemergent weed treatment in the submerged state; A: barnyard grass
Procedure, shortened: as §1

[6] = system: oval-leafed pondweed; assay: Test Example 1: weedkilling efficacy, preemergent weed treatment in the submerged state; C: oval-leafed pondweed
Procedure, shortened: as §1

[7] = system: barnyard grass; assay: Test Example 2: weedkilling efficacy, growth period weed treatment in the submerged state; A: barnyard grass
Procedure, shortened: as §2

SMILES | B (bulrush) weedkilling efficacy grade ([2]; treatment dosage 252 g/ha) | C (oval-leafed pondweed) weedkilling efficacy grade ([4]; treatment dosage 252 g/ha) | A (barnyard grass) weedkilling efficacy grade ([7]; treatment dosage 252 g/ha) | a: transplanted rice, effect on crop grade ([1]; treatment dosage 252 g/ha) | B: bulrush, weed kill grade ([3]; treatment dosage 252 g/ha) | A: barnyard grass, weed kill grade ([5]; treatment dosage 252 g/ha) | C: oval-leafed pondweed, weed kill grade ([6]; treatment dosage 252 g/ha) | B (bulrush) weedkilling efficacy grade ([2]; treatment dosage 320 g/ha) | C (oval-leafed pondweed) weedkilling efficacy grade ([4]; treatment dosage 320 g/ha) | A (barnyard grass) weedkilling efficacy grade ([7]; treatment dosage 320 g/ha) | further results
CC1=C(c2ccccc2)C(=O)N(C(C)(C)C(=O)Nc2nnc(-c3ccccc3)s2)CO1 [B-1-11] | 4 (weed kill ratio 70% or more, less than 90%) | 3 (weed kill ratio 40% or more, less than 70%) | 1 (weed kill ratio 5% or more, less than 20%) | – | – | – | – | – | – | – | a (transplanted rice) effect on crop grade ([1]; treatment dosage 252 g/ha): 0 (weed kill ratio 5% or less (practically no effect)); B (bulrush) weedkilling efficacy grade ([3]; treatment dosage 252 g/ha): 5 (weed kill ratio 90% or more, (practically complete withering)); A (barnyard grass) weedkilling efficacy grade ([5]; treatment dosage 252 g/ha): 4 (weed kill ratio 70% or more, less than 90%); C (oval-leafed pondweed) weedkilling efficacy grade ([6]; treatment dosage 252 g/ha): 5 (weed kill ratio 90% or more, (practically complete withering))
CC(C)(C(=O)Nc1cc(Cl)cnc1Br)N1COCN(c2ccccc2)C1=O [A-3-08] | 3 (weed kill ratio 40% or more, less than 70%) | 2 (weed kill ratio 20% or more, less than 40%) | 2 (weed kill ratio 20% or more, less than 40%) | 0 (weed kill ratio 5% or less (practically no effect)) | 5 (weed kill ratio 90% or more, (practically complete withering)) | 5 (weed kill ratio 90% or more, (practically complete withering)) | 4 (weed kill ratio 70% or more, less than 90%) | – | – | – | –
CC(C)(C(=O)Nc1cc(Cl)cc(Br)n1)N1COCN(c2c(F)cccc2F)C1=O [A-6-02] | 5 (weed kill ratio 90% or more, (practically complete withering)) | 5 (weed kill ratio 90% or more, (practically complete withering)) | 5 (weed kill ratio 90% or more, (practically complete withering)) | 0 (weed kill ratio 5% or less (practically no effect)) | 5 (weed kill ratio 90% or more, (practically complete withering)) | 5 (weed kill ratio 90% or more, (practically complete withering)) | 5 (weed kill ratio 90% or more, (practically complete withering)) | – | – | – | –
CC1=C(c2ccccc2)C(=O)N(C(C)(C)C(=O)Nc2cc(Cl)cc(-c3ccccc3)n2)CO1 [B-2-45] | – | – | – | – | – | – | – | 2 (weed kill ratio 20% or more, less than 40%) | 4 (weed kill ratio 70% or more, less than 90%) | 4 (weed kill ratio 70% or more, less than 90%) | a (transplanted rice) effect on crop grade ([1]; treatment dosage 320 g/ha): 2 (weed kill ratio 20% or more, less than 40%); B (bulrush) weedkilling efficacy grade ([3]; treatment dosage 320 g/ha): 5 (weed kill ratio 90% or more, (practically complete withering)); A (barnyard grass) weedkilling efficacy grade ([5]; treatment dosage 320 g/ha): 5 (weed kill ratio 90% or more, (practically complete withering)); C (oval-leafed pondweed) weedkilling efficacy grade ([6]; treatment dosage 320 g/ha): 4 (weed kill ratio 70% or more, less than 90%)
Cc1ccc(N2COCN(C(C)(C)C(=O)Nc3cc(Cl)cc(Cl)n3)C2=O)cc1 [A-6-12] | – | – | – | – | – | – | – | 5 (weed kill ratio 90% or more, (practically complete withering)) | 5 (weed kill ratio 90% or more, (practically complete withering)) | 4 (weed kill ratio 70% or more, less than 90%) | a: transplanted rice, effect on crop grade ([1]; treatment dosage 320 g/ha): 2 (weed kill ratio 20% or more, less than 40%); B: bulrush, weed kill grade ([3]; treatment dosage 320 g/ha): 5 (weed kill ratio 90% or more, (practically complete withering)); A: barnyard grass, weed kill grade ([5]; treatment dosage 320 g/ha): 5 (weed kill ratio 90% or more, (practically complete withering)); C: oval-leafed pondweed, weed kill grade ([6]; treatment dosage 320 g/ha): 5 (weed kill ratio 90% or more, (practically complete withering))
CC(C)(C(=O)Nc1cncc(Cl)c1)N1COCN(c2ccccc2)C1=O [A-3-02] | 5 (weed kill ratio 90% or more, (practically complete withering)) | 3 (weed kill ratio 40% or more, less than 70%) | 2 (weed kill ratio 20% or more, less than 40%) | 2 (weed kill ratio 20% or more, less than 40%) | 5 (weed kill ratio 90% or more, (practically complete withering)) | 5 (weed kill ratio 90% or more, (practically complete withering)) | 5 (weed kill ratio 90% or more, (practically complete withering)) | – | – | – | –
CC(C)(C(=O)Nc1cc(F)nc(F)c1)N1COCN(c2ccccc2)C1=O [A-4-04] | – | – | – | – | – | – | – | 5 (weed kill ratio 90% or more, (practically complete withering)) | 4 (weed kill ratio 70% or more, less than 90%) | 3 (weed kill ratio 40% or more, less than 70%) | a: transplanted rice, effect on crop grade ([1]; treatment dosage 320 g/ha): 0 (weed kill ratio 5% or less (practically no effect)); B: bulrush, weed kill grade ([3]; treatment dosage 320 g/ha): 5 (weed kill ratio 90% or more, (practically complete withering)); A: barnyard grass, weed kill grade ([5]; treatment dosage 320 g/ha): 5 (weed kill ratio 90% or more, (practically complete withering)); C: oval-leafed pondweed, weed kill grade ([6]; treatment dosage 320 g/ha): 5 (weed kill ratio 90% or more, (practically complete withering))
CC(C)(C(=O)Nc1cc(Br)cnc1Cl)N1COCN(c2ccccc2)C1=O [A-3-07] | 5 (weed kill ratio 90% or more, (practically complete withering)) | 1 (weed kill ratio 5% or more, less than 20%) | 4 (weed kill ratio 70% or more, less than 90%) | 0 (weed kill ratio 5% or less (practically no effect)) | 5 (weed kill ratio 90% or more, (practically complete withering)) | 5 (weed kill ratio 90% or more, (practically complete withering)) | 4 (weed kill ratio 70% or more, less than 90%) | – | – | – | –
CC(C(=O)Nc1cc(Cl)cc(Cl)n1)N1COCN(c2ccccc2)C1=O (racemic) [A-7-01] | – | – | – | – | – | – | – | – | – | – | a: transplanted rice, effect on crop grade ([1]; treatment dosage 1000 g/ha): 0 (weed kill ratio 5% or less (practically no effect)); B (bulrush) weedkilling efficacy grade ([2]; treatment dosage 1000 g/ha): 5 (weed kill ratio 90% or more, (practically complete withering)); B: bulrush, weed kill grade ([3]; treatment dosage 1000 g/ha): 5 (weed kill ratio 90% or more, (practically complete withering)); C (oval-leafed pondweed) weedkilling efficacy grade ([4]; treatment dosage 1000 g/ha): 1 (weed kill ratio 5% or more, less than 20%); A: barnyard grass, weed kill grade ([5]; treatment dosage 1000 g/ha): 5 (weed kill ratio 90% or more, (practically complete withering)); C: oval-leafed pondweed, weed kill grade ([6]; treatment dosage 1000 g/ha): 4 (weed kill ratio 70% or more, less than 90%); A (barnyard grass) weedkilling efficacy grade ([7]; treatment dosage 1000 g/ha): 3 (weed kill ratio 40% or more, less than 70%)
CC(C)(C(=O)Nc1cncc(Br)c1)N1COCN(c2ccccc2)C1=O [A-3-03] | 5 (weed kill ratio 90% or more, (practically complete withering)) | 4 (weed kill ratio 70% or more, less than 90%) | 3 (weed kill ratio 40% or more, less than 70%) | 0 (weed kill ratio 5% or less (practically no effect)) | 5 (weed kill ratio 90% or more, (practically complete withering)) | 5 (weed kill ratio 90% or more, (practically complete withering)) | 5 (weed kill ratio 90% or more, (practically complete withering)) | – | – | – | –
